Results as given in patent publication US20230416210A1, “METHODS OF MAKING A PPAR-DELTA AGONIST” (Reneo Pharmaceuticals, Inc., priority 2020, published 2023).

Columns and labels:
[1] = molecular target: T1, PPARδ (Mus musculus, UniProt P35396); conditions: mice, cited from earlier work
T1 construct: host or cells: mice (skeletal muscle), in vivo
T1 sequence (P35396 1-440): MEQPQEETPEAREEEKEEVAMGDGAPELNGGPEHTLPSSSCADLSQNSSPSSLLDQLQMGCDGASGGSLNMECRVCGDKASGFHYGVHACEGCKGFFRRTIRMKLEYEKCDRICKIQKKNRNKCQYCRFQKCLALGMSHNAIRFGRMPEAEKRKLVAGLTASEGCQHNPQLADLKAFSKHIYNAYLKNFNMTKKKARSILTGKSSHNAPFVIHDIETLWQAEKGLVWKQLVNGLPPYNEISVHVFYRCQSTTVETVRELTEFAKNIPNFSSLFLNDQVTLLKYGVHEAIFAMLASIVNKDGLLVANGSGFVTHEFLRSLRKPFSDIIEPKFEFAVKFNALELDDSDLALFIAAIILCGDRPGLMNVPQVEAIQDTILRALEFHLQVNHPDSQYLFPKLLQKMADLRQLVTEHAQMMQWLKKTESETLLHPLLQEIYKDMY

[2] = molecular target: T2, PPARα (Homo sapiens, UniProt Q07869); test: PPAR agonist activity in human cell lines expressing PPAR isotypes; format: cell-based
T2 sequence (Q07869 1-468): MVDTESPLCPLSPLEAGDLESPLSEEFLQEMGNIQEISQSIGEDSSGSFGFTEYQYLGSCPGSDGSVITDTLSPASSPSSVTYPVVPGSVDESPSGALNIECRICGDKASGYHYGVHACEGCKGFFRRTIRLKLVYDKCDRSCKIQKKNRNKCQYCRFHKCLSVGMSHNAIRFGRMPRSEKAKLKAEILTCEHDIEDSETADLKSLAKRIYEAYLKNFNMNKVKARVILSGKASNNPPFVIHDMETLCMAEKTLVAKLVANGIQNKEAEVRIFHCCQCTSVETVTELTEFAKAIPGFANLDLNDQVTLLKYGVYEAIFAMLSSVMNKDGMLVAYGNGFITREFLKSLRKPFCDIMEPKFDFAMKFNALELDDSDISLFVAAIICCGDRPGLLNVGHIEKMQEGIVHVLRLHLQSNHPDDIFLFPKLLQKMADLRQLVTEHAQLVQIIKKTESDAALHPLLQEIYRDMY
Description: (§1) Compound I is a PPARδ agonist that is useful in the methods of treatment described herein. In human cell lines expressing all three peroxisome proliferator-activated receptor (PPAR) isotypes, Compound I is a potent (EC50<100 nM) and selective human PPARδ agonist, with minor activity on PPARα (EC50>10 μM) and PPARγ (EC50>10 μM).

[3] = molecular target: T3, PPARγ (Homo sapiens, UniProt P37231); test: as above; format: cell-based
T3 sequence (P37231 1-505): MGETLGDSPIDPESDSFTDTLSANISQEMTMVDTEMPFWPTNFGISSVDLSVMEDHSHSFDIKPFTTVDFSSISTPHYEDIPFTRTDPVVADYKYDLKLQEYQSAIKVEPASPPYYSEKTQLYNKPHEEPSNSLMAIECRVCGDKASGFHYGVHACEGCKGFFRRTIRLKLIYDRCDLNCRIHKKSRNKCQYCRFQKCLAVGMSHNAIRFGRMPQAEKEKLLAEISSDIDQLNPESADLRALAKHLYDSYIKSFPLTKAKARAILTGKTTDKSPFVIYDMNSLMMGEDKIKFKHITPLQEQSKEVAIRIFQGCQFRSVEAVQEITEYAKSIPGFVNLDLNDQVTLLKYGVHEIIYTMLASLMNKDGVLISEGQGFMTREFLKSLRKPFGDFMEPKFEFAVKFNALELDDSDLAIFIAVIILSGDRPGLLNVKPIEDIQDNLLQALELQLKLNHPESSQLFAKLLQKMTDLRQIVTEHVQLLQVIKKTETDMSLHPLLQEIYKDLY
Description: as §1

[4] = molecular target: T4, human PPARδ (Homo sapiens, UniProt Q03181); test: as above; format: cell-based
T4 sequence (Q03181 1-441): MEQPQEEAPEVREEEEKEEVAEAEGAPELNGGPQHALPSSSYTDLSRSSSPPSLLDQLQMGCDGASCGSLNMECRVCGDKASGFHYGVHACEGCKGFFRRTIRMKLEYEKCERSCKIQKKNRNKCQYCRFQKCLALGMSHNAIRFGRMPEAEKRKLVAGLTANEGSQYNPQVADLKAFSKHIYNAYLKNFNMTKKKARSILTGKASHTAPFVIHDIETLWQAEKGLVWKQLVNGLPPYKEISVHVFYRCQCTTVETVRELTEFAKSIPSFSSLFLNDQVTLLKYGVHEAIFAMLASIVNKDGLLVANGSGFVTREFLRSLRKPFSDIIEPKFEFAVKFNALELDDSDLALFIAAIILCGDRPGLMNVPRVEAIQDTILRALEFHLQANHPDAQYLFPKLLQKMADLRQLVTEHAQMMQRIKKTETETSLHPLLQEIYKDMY
Description: as §1

[5] = tested on: RXR; test: Activation of human cells expressing nuclear receptors; format: cell-based
[6] = molecular target: T5, FXR (Homo sapiens, UniProt Q96RI1); test: as above; format: cell-based
T5 sequence (Q96RI1 1-486): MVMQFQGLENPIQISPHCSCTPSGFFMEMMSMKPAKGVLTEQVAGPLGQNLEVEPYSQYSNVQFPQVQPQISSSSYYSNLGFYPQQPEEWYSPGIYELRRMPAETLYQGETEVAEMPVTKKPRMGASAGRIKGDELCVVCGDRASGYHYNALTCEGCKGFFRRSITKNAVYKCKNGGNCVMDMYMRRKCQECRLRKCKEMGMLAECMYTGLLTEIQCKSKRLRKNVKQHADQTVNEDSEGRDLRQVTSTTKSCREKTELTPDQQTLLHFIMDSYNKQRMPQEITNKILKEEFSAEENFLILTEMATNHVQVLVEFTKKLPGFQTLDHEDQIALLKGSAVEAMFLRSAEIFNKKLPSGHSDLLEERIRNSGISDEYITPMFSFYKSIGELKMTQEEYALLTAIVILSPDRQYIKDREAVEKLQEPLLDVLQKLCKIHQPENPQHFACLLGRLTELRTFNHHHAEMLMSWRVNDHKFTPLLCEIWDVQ

[7] = molecular target: T6, LXRα (Homo sapiens, UniProt Q13133); test: as above; format: cell-based
T6 sequence (Q13133 1-447): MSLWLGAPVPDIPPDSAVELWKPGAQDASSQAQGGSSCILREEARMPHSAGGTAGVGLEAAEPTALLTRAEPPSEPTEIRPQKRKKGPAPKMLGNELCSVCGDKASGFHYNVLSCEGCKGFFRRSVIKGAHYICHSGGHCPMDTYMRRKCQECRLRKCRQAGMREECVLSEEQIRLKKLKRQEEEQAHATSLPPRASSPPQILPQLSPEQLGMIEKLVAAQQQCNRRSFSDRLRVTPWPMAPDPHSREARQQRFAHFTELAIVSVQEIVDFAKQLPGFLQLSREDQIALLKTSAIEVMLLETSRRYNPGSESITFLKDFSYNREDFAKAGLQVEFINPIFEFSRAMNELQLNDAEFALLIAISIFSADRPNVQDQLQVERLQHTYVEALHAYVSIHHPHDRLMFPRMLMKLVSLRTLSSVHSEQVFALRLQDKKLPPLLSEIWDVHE

[8] = molecular target: T7, LXRβ (Homo sapiens, UniProt P55055); test: as above; format: cell-based
T7 sequence (P55055 1-460): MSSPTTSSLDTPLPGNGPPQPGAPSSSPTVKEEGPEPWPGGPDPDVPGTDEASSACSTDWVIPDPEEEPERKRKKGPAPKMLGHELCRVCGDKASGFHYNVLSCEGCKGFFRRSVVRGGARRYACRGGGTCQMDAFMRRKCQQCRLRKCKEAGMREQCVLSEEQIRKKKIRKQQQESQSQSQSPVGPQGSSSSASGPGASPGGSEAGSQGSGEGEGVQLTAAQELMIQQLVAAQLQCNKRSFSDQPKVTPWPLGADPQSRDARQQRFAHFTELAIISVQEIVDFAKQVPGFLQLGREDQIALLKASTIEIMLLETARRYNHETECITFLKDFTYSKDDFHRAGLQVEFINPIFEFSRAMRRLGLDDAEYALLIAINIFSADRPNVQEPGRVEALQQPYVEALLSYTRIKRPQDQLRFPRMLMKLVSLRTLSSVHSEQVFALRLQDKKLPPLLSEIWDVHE

[9] = tested on: PPARδ regulated genes (CPT1b, PGC-1α); test: In vivo expression of PPARδ regulated genes in mice muscle
[10] = tested on: Angiopoietin-like 4 (ANGPTL4); test: In vivo expression of PPAR regulated target gene in rat muscle
[11] = Clinical studies, safety and tolerability; format: in vivo, human
[12] = in combination with exercise, 4 weeks
[13] = human cell lines expressing all three PPAR isotypes

Row | Structure (SMILES) | energy substrate usage ([1]; 8 weeks) | muscle fibers, mitochondrial biogenesis [1, 12] | physical performance [1, 12] | selectivity for PPARδ over PPARα [2] | type of agonism on PPARα [2] | EC50 [2, 13] | selectivity for PPARδ over PPARγ [3] | type of agonism on PPARγ [3] | EC50 [3, 13] | type of agonism on PPARδ [4] | EC50 [4, 13] | activation of human cells expressing RXR [5] | activation of human cells expressing FXR [6] | activation of human cells expressing LXRα [7] | activation of human cells expressing LXRβ [8] | expression of PPARδ regulated genes CPT1b (beta-oxidation of long chain fatty acids) and PGC-1α (mitochondrial biogenesis) [9] | expression of ANGPTL4 [10] | incidence of adverse events (AEs) versus placebo [11] | serious adverse events (SAEs) [11] | safety and tolerability ([11]; Compound I or a pharmaceutically acceptable salt, solvate or hydrate)
1 | Cc1cc(SCc2sc(-c3ccc(C(F)(F)F)cc3)nc2C)ccc1OCC(=O)O [GW1516] | clear shift in energy substrate usage from glucose to fatty acid oxidation | synergistically induced fatigue-resistant oxidative muscle fibers and mitochondrial biogenesis | enhanced physical performance | – | – | – | – | – | – | – | – | – | – | – | – | – | – | – | – | –
2 | Cc1cc(OC/C=C(/c2ccc(F)cc2)c2ccc(C#CCN3CCOCC3)cc2)ccc1OCC(=O)O [Compound I, (E)-2-(4-((3-(4-fluorophenyl)-3-(4-(3-morpholinoprop-1-yn-1-yl)phenyl)allyl)oxy)-2-methylphenoxy)acetic acid] | – | – | – | 100 fold | only partial agonist activity | > 10 µM | 400 fold | only partial agonist activity | > 10 µM | full PPARδ agonist | < 0.1 µM | did not result in activation | did not result in activation | did not result in activation | did not result in activation | altered the expression patterns | increased the expression | similar | No serious adverse events (SAEs) were reported | safe and well tolerated
